Measurements reported in ChEMBL document CHEMBL1201862, “PubChem BioAssay data set” (2004).
Activity calls are given as the source filed them.

Key:
[1] = cytotoxicity in HPDE-C7 cells, cell-based, fluorescence, HTS (AID 430); format: functional; settings: Homo sapiens
[2] = cytotoxicity in KRAS-transformed pancreatic duct cells, primary screen, cell-based, fluorescence, HTS (AID 431); format: functional; settings: Homo sapiens;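 note: cell line used: HPDE-C7K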
[3] = molecular target: T1, Short transient receptor potential channel 4 (Mus musculus, UniProt Q9QUQ5); assay: mouse TRPC4 channel activators, dose response, cell-based, HEK293 TRPC4/mu-opioid, Fluo-4 calcium (AID 434937); format: functional
T1 sequence (Q9QUQ5 whole entry): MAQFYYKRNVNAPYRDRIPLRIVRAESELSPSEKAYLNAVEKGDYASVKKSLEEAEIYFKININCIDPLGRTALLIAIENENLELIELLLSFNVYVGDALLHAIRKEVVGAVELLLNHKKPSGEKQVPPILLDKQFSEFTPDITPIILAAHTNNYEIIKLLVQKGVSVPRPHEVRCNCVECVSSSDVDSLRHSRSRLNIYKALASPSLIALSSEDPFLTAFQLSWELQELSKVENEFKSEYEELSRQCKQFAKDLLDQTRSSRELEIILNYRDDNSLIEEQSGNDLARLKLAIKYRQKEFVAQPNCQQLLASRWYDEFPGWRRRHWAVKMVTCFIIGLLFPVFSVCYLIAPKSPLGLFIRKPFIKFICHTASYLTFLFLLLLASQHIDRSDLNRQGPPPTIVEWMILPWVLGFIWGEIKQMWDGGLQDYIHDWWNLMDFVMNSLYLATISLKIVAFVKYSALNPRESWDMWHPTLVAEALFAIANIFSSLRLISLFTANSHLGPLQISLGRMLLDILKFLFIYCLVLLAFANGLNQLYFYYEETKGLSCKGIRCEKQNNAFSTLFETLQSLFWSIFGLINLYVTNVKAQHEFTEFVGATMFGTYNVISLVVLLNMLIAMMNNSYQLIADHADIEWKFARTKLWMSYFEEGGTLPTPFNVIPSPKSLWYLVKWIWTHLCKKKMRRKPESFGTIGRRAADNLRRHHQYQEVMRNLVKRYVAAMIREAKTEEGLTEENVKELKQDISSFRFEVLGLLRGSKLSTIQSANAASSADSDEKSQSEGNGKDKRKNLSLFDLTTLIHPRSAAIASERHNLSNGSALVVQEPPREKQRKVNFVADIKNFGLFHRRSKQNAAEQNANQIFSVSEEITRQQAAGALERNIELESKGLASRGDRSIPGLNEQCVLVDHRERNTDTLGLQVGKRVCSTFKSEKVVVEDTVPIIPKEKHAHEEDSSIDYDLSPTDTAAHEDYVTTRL

[4] = molecular target: T2, Endoribonuclease toxin MazF (Escherichia coli K-12, UniProt P0AE70); assay: MazF toxin RNase activators, dose response, biochemical, fluorescence, single-stranded RNA substrate, uHTS hits (AID 588481); format: functional
T2 sequence (P0AE70 whole entry): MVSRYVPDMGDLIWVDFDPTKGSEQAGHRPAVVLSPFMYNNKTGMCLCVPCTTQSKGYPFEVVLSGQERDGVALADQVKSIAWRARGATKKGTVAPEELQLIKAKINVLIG

[5] = molecular target: T2, Endoribonuclease toxin MazF; assay: fluorescent RNA oligo signal without MazF, dose response, counter-screen for MazEF activator project, biochemical, fluorescence, single-stranded RNase substrate (AID 588502); format: functional
[6] = Luminescence Cell-Based Dose Response HTS to Identify Inhibitors of 5'UTR Stem-Loop Driven Prion Protein mRNA Translation in H4 Neuroglioblastoma Cells. [Related pubchem assays: 1827 (Project Summary), 1813 (Primary HTS)]; format: functional
[7] = inhibitors of SNCA 5'UTR-driven reporter translation, confirmation, H4 neuroglioma cells, luminescence (AID 1988); format: functional, cell-based
[8] = Luminescence Cell-Based Dose Retest to Confirm Inhibitors of Cancer Stem Cells. [Related pubchem assays (depositor defined):AID2717, AID2721]; format: functional; settings: Homo sapiens
[9] = test system: Jurkat; assay: antigen receptor-induced NF-kB inhibitors, dose response, Jurkat, luciferase reporter, luminescence, B- and T-cell (AID 489004); format: functional, cell-based; settings: Homo sapiens;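 note: NF-kB luciferase reporter Jurkat cells stimulated with PMA plus ionomycin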
[10] = cytotoxicity in HEK-293T NF-kB-Luc cells, dose response, cytotoxicity control for B/T-cell NF-kB inhibitor project, cell-based, uHTS hits (AID 489019); format: functional;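 note: IC50 reflects cytotoxicity as loss of cell viability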
[11] = miR-122 activators in hepatoma reporter cells, dose response, cell-based, Huh7 psiCHECK-miR122, Renilla luciferase, cherry-picked (AID 651956); format: functional;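 note: huh7 hepatoma cells stably carrying a psiCHECK-2 miR-122 sensor plasmid; renilla luciferase signal reporting endogenous miR-122 activity after 48 h compound exposure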
[12] = HEK293T cytotoxicity, dose response, cytotoxicity control for miR-122 modulator project, cell-based, inhibitor set, cherry-pick, set 2 (AID 720697); format: functional
[13] = inhibitors of HIV Env-driven cell fusion, dose response, cherry-pick (AID 652057); format: functional, cell-based
[14] = CEM21 lymphoblast cell cytotoxicity, dose response, cytotoxicity control for viral fusion inhibitor project, CellTiter-Glo luminescence, cherry-picked (AID 652042); format: functional, cell-based;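 note: potency for signal decrease meaning cytotoxicity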
[15] = ZM109 Env clade C HIV-1 fusion inhibitors, dose response, HeLa effector, CEM target cells, luciferase, cherry-pick (AID 652058); format: functional, cell-based
[16] = molecular target: Paired box protein Pax-8 (Homo sapiens, UniProt Q06710); assay: inhibitors of PAX8-driven TPO luciferase reporter, dose response, RMG-I cells, cherry-pick (AID 687027); format: functional, cell-based;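 note: luciferase reporter driven by Pax8 target thyroperoxidase promoter measured by SteadyGlo luminescence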
Paired box protein Pax-8, sequence (Q06710 whole entry, the tested form may be a part): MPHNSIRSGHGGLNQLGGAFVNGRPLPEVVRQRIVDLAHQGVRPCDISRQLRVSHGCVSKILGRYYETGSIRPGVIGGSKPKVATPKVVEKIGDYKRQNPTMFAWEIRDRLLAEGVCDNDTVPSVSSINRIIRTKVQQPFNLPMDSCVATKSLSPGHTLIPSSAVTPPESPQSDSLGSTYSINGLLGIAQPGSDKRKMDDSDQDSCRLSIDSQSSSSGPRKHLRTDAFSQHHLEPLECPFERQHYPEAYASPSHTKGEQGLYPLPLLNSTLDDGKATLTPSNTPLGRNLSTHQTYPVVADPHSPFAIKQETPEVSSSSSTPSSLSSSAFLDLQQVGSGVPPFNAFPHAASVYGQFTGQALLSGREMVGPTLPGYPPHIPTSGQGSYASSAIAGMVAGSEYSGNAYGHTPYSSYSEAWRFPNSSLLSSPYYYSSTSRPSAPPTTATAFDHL

[17] = off-target signal loss in HeLa-CEM21 co-culture – HeLa F-luc CTL cells, cherry-picked, counter-screen for HIV-1 Env fusion inhibitor project, dose response (AID 652040); format: functional, cell-based;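 note: potency for signal decrease marking cytotoxic or nonspecific inhibition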
[18] = inhibitors of clade B AD8 Env fusion, dose response, cell-based, cherry-pick (AID 652062); format: functional;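 note: luciferase signal from cell-cell fusion driven by HIV-1 clade B AD8 Env; potency is for inhibitors of fusion seen as a drop in luminescence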
[19] = Luminescence Cell-Based Dose Confirmation HTS to Identify Activators of 5'UTR Stem-Loop Driven Alpha-Synuclein mRNA Translation in H4 Neuroglioblastoma Cells. [Related pubchem assays: 1829 (Project Summary), 1814 (Primary HTS)]; format: functional
[20] = Luminescence Cell-Based Dose Response HTS to Identify Activators of Luciferase Translation or Activity in H4 […] Cells. [Related pubchem assays: 1829 (Project Summary), 1814 (Primary HTS)]; format: functional
[21] = cells; format: functional, cell-based
[22] = test system: H4; assay: Luminescence Cell-Based Dose Response HTS to Identify Activators of 5'UTR Stem-Loop Driven Prion Protein mRNA Translation in H4 Neuroglioblastoma Cells. [Related pubchem assays: 1829 (Project Summary), 1814 (Primary HTS)]; format: functional; settings: Homo sapiens
[23] = cells; format: functional, cell-based; remark: listed apart in the source
[24] = test system: HEK293; assay: cells; format: functional, cell-based; settings: Homo sapiens
[25] = molecular target: T3, Nuclear receptor subfamily 0 group B member 1 (Homo sapiens, UniProt P51843); assay: Luminescence-based cell-based high throughput dose response assay for inhibitors of the orphan nuclear receptor subfamily 0, group B, member 1 (DAX1; NR0B1). [Related pubchem assays (depositor defined):AID504766, AID504790]; format: functional
T3 sequence (P51843 whole entry): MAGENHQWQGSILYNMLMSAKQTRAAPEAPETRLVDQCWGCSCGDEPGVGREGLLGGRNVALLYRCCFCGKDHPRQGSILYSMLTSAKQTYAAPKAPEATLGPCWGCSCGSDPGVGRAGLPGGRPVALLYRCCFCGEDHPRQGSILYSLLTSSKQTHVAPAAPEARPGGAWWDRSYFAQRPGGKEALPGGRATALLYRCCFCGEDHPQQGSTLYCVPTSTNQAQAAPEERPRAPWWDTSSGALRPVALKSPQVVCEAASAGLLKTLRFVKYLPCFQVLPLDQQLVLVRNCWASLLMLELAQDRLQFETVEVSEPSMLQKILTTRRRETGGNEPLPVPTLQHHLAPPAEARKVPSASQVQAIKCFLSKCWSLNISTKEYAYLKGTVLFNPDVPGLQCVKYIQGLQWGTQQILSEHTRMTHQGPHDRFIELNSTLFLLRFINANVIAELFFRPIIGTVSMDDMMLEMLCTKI

[26] = molecular target: T4, Ubiquitin-conjugating enzyme E2 N (Homo sapiens, UniProt P61088); format: functional;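 note: Dose-response confirmation in a TR-FRET assay detecting UBC13-driven polyubiquitin chain formation, inhibition measured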
T4 sequence (P61088 whole entry): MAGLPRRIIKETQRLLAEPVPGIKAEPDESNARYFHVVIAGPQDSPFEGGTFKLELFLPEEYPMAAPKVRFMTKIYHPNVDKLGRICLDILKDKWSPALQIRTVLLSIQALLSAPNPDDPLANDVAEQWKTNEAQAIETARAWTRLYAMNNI

[27] = molecular target: T5, Microphthalmia-associated transcription factor (Homo sapiens, UniProt O75030); assay: TRPM1 promoter luciferase signal decrease, dose response, MITF inhibitor project, cell-based, SK-MEL-5, cherry-picked, set 3 (AID 493073); format: functional
T5 sequence (O75030 whole entry): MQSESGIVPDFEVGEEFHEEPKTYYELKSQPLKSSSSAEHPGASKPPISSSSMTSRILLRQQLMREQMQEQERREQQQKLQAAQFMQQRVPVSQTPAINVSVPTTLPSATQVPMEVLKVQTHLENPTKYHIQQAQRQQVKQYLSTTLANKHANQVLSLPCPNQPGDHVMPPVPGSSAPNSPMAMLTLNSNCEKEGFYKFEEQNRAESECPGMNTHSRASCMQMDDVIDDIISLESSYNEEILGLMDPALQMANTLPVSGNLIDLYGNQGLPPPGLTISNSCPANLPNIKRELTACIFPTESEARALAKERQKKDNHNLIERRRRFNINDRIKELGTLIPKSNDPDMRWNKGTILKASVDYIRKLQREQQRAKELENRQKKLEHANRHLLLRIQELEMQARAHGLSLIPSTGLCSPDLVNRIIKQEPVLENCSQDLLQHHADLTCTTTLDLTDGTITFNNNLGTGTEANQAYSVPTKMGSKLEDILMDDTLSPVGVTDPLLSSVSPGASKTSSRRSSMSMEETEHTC

[28] = test system: A-375; assay: A375 melanoma cell viability reduction, dose response, counter-screen for MITF modulator project, cherry-pick samples, set 2 (AID 540335); format: functional, cell-based; settings: Homo sapiens
[29] = molecular target: T6, DNA repair protein RAD52 homolog (Homo sapiens, UniProt P43351); format: functional, biochemical
T6 sequence (P43351 whole entry): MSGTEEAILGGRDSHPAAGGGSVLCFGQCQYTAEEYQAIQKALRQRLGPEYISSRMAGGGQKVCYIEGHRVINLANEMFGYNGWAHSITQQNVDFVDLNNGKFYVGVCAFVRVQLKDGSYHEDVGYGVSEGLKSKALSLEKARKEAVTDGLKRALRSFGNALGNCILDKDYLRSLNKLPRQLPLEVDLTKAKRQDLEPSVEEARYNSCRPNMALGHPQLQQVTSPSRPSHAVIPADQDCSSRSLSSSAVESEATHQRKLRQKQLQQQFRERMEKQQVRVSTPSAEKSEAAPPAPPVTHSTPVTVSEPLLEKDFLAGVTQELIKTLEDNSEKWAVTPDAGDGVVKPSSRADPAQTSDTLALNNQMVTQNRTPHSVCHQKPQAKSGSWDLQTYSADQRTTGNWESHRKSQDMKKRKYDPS

[30] = molecular target: T1, Short transient receptor potential channel 4; assay: mouse TRPC4 channel inhibitors, dose response, cell-based, HEK293 TRPC4/mu-opioid, Fluo-4 calcium (AID 434942); format: functional;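 note: potency of inhibitors blocking the TRPC4 calcium response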
[31] = molecular target: Beta-2 adrenergic receptor (Homo sapiens, UniProt P07550); assay: beta2AR agonists driving receptor internalization, dose response, cell-based, FAP fluorogen, flow cytometry, cherry pick 1 (AID 588763); format: functional
Beta-2 adrenergic receptor, sequence (P07550 whole entry): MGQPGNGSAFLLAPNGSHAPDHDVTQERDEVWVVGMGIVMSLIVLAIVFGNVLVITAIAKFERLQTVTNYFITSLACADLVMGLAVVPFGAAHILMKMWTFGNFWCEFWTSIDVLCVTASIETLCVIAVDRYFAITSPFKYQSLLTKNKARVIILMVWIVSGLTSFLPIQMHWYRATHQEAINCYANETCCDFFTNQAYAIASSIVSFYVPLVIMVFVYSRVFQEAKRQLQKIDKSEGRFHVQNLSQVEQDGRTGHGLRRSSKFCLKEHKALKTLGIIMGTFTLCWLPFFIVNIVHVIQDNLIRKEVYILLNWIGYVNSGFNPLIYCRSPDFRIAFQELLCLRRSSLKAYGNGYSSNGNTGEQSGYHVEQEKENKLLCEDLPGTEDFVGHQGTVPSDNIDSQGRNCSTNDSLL

SMILES: CCCCN(CC)CCCNC(=O)Cn1nc(Cc2ccncc2)c2ccccc2c1=O
- EC50 [1]: > 20 µM (not active)
- EC50 [2]: > 20 µM (not active)
- EC50 [3]: 0.168 µM (active)

SMILES: O=C(Nc1ccc2oc(-c3ccccc3)nc2c1)c1cc(-n2cnnc2)ccc1Cl
- EC50 [4]: > 99 µM (inactive)
- EC50 [5]: > 99 µM (inactive)

SMILES: Nc1nc(Cl)nc2c1ncn2[C@H]1C[C@H](O)[C@@H](CO)O1 [CLADRIBINE]
- EC50 [6]: 4.8 µM (active)
- EC50 [7]: 2.96 µM (active)
- AC50 [8]: 0.24 µM (active)
- IC50 [9]: 0.66 µM (active)
- IC50 [10]: > 80 µM (inactive)
- AC50 [11]: 50.9 µM (active)
- AC50 [12]: 9.07 µM (active)

SMILES: C[C@@H]1O[C@@H](O[C@@H]2C=C3CC[C@@H]4C(CC[C@]5(C)[C@@H](c6ccc(=O)oc6)CC[C@]45O)[C@@]3(C)CC2)[C@H](O)[C@H](O)[C@H]1O (some centres not stated)
- AC50 [8]: < 0.16 µM (active)
- IC50 [9]: 0.33 µM (active)
- IC50 [10]: > 80 µM (inactive)
- AC50 [13]: 0.799 µM (active)
- AC50 [14]: 0.613 µM (active)
- AC50 [15]: 0.319 µM (active)
- AC50 [16]: < 0.26 µM (active)
- AC50 [17]: < 0.26 µM (active)
- AC50 [18]: 0.54 µM (active)

SMILES: COc1ccc(C(=O)NC2=Nc3ccccc3N=C(C)C2c2ccccc2)cc1 (configuration not stated)
- EC50 [19]: 9.66 µM (active)
- EC50 [20]: 40.7 µM (active)
- EC50 [21]: 34.7 µM (active)
- EC50 [22]: 18.9 µM (active)
- EC50 [23]: 78.6 µM (active)
- IC50 [24]: 3.47 µM (active)
- IC50 [25]: > 67.5 µM (inactive)

SMILES: Cc1c(CCOC(=O)c2ccc(Cl)cc2Cl)sc[n+]1CC(=O)c1ccc(Br)cc1
- IC50 [26]: > 20 µM (inactive)
- AC50 [27]: 19.8 µM (active)
- AC50 [28]: 23.5 µM (active)
- AC50 [29]: 13 µM (active)

SMILES: OCC1(CC2CCCCO2)CCN(Cc2nc3ccccc3[nH]2)CC1 (configuration not stated)
- EC50 [30]: 3.35 µM (active)
- EC50 [3]: 5.31 µM (active)

SMILES: O=C1C2CCCCN2C(=O)N1CCCCN1CCN(c2cccc(C(F)(F)F)c2)CC1 (configuration not stated)
- EC50 [31]: 2.52 µM (active)

SMILES: CN(C)S(=O)(=O)c1cc(NC2CC(=O)N(c3ccc(F)cc3)C2=O)ccc1Cl (configuration not stated)
- IC50 [24]: > 67.5 µM (inactive)
- IC50 [25]: > 67.5 µM (inactive)
